Reference: patent US9873878B2, “Compositions and methods for use in treating silicosis and lung cancer” (University of Louisville Research Foundation, Inc., priority 2015, dated 2018)

Test system: RAW264.7 cells
Assay: CS-induced LTB4 production in RAW264.7 culture supernatants (LTB4 EIA)
Type: cell-based
Conditions: RAW264.7 cells pre-treated with 10 μM Zileuton for 1 h, then 120 μg/cm^2 CS for 6 h
Procedure: FIG. 10C depicts LTB4 production by cells in vitro, measured in culture supernatants of RAW264.7 cells exposed to 120 μg/cm^2 CS for 6 h in presence of 5-LO inhibitor.
LKR13 and RAW264.7cells were cultured in DMEM containing 10% FBS. For CS stimulation assays, 0.3 million cells were plated per well of 12-well tissue culture dishes in 400 μl of 1% FBS containing medium. The cells were stimulated for 6 h with 120 μg/cm^2 of CS. Whenever indicated RAW264.7 cells were pre-treated with 10 μM Zileuton (5-LO inhibitor) for 1 h.
Subcutaneous tumors were homogenized in 500 ul 1×PBS buffer containing 10 uM Indomethacin using Omni GLH general homogenizer. The homogenates were centrifuged at 14000 g for 10 min and LTB4 levels in the supernatants were quantified. The LTB4 levels were normalized to the amount of protein in the supernatants measured by Themo Sceintific Pierce BCA protein assay kit following manufacturer's instructions. LTB4 in the tumor homogenate supernatant was expressed as pg/mg of protein. LTB4 in cell culture supernatants, BALF, air pouch lavage and subcutaneous tumors was measured using LTB4 EIA Kit (Cayman Chemical) according to the manufacturer's instructions. IL-1β in cell culture supernatants was measured using Mouse IL-1β ELISA MAX™ Standard Kit (Biolegend) according to the manufacturer's instructions.

CC(c1cc2ccccc2s1)N(O)C(N)=O (stereo not shown) [Zileuton]
LTB4 production by CS activation: completely blocked
